Data set [1] addresses T1, BaF3 ETV6-NTRK3-G623R (Homo sapiens, UniProt Q16288, G623R, cells depend on it).
T1 construct: fused on or other part: N-terminal part of ETV6 (TEL) as fusion partner (part of the key); P41212 (Transcription factor ETV6)
Description: Inhibitory activity against cell proliferation (CellTiter-Glo, 72 hours). It counts as cell-based. As to conditions: read-out: Half maximal inhibitory concentration IC50 of cells, BaF3 ETV6-NTRK3-G623R. The method, then:
(§1) Adenosine Triphosphate (ATP) is an energy carrier commonly used in various life activities in nature, and is the minimum unit for energy storage and transfer. The CellTiter-Glo™ cell viability assay kit uses luciferase as an assay agent, which requires the involvement of ATP in luminescence. The CellTiter-Glo™ reagent is added into cell culture medium to measure the luminescence value. The luminescence signal is directly proportional to the amount of ATP in the system, and the ATP is positively correlated with the number of viable cells. Therefore, the proliferation of cells can be detected by detecting the ATP content using the CellTiter-Glo kit. In this test, the cell lines used are Ba/F3 LMNA-NTRK1-WT, Ba/F3 LMNA-NTRK1-F589L, BaF3 LMNA-NTRK1-G595R, BaF3 LMNA-NTRK1-G667A, BaF3 ETV6-NTRK3-WT, BaF3 ETV6-NTRK3-G623R, and Ba/F3 SLC34A2-ROS1-WT stable cell strains, 5000 cells/well.
(§2) a) Cells in the logarithmic growth phase were collected and counted using a […]. The cell viability was detected by the trypan blue exclusion method, and the cell viability was kept over 90%.
(§3) b) The cell concentration was adjusted; 90 μL of the cell suspension was added to a 96-well plate.
c) Cells in the 96-well plate were incubated overnight at 37° C. with 5% CO2 and 95% humidity.
(§4) a) A 10-fold compound solution was prepared, with the highest concentration being 10 μM (a total of 9 concentrations, 3-fold dilution). 10 μL of compound solution was added to each well of a 96-well plate inoculated with cells, and three duplicate wells were set for each compound concentration.
b) The cells in the 96-well plate added with compound were incubated for 72 hours at 37° C. with 5% CO2 and 95% humidity, followed by the CTG (CellTiter-Glo) analysis.
(§5) a) The CTG reagent was thawed and the cell plate was equilibrated to room temperature for 30 minutes.
(§6) b) An equal volume of CTG solution was added to each well.
(§7) c) The plate was shaken on an orbital shaker for 5 minutes to lyse the cells.
(§8) d) The cell plate was placed at room temperature for 20 minutes to stabilize the luminescence signal.
(§9) e) The luminescence value was read.
(§10) The data were analyzed using GraphPad Prism 5.0 software, fitted with nonlinear S-curve regression to give dose-response curves, and IC50 values were calculated therefrom.

Data set [2] can be described thus: Pharmacokinetic test of compounds in mice (plasma, LC/MS/MS). It is filed as in vivo, male CD-1 mice. As to conditions: for AUC(0-t): read-out: Area under the curve AUC0-last. The method, then:
Experimental purpose: male CD-1 mice aged 7-9 weeks were selected as test animals, and the drug concentrations of the compounds in plasma at different time points after single intravenous injection (IV) and intragastric administration (PO) of the compounds were measured by an LC/MS/MS method, so that the pharmacokinetic behavior of the compounds disclosed herein in mice was studied, and the pharmacokinetic characteristic of the compounds was evaluated.
Drug preparation: the compounds were all prepared into clear solution by taking 5% DMSO+10% solutol+85% water as vehicle, and were used for administration in IV and PO groups. The dose of each compound administered was: IV, 3 mg/kg; PO, 10 mg/kg.

Data set [3] has as its target T2, Ba/F3 LMNA-NTRK1-WT (Homo sapiens, UniProt P04629).
T2 construct: fused on or other part: N-terminal part of LMNA as fusion partner (part of the key); P02545 (Prelamin-A/C)
Description: Inhibitory activity against cell proliferation (CellTiter-Glo, 72 hours). It counts as cell-based. To be noted: read-out: Half maximal inhibitory concentration IC50 of cells, Ba/F3 LMNA-NTRK1-WT. The method, then:
as §1, with “kit.” for “kit. In this test, the cell lines used are Ba/F3 LMNA-NTRK1-WT, Ba/F3 LMNA-NTRK1-F589L, BaF3 LMNA-NTRK1-G595R, BaF3 LMNA-NTRK1-G667A, BaF3 ETV6-NTRK3-WT, BaF3 ETV6-NTRK3-G623R, and Ba/F3 SLC34A2-ROS1-WT stable cell strains, 5000 cells/well.”
as §2, §3, §4, §5, §6, §7, §8, §9, §10

Data set [4] has as its target T3, Ba/F3 SLC34A2-ROS1-WT (Homo sapiens, UniProt P08922).
T3 construct: fused on or other part: N-terminal part of SLC34A2 as fusion partner (part of the key); O95436 (Sodium-dependent phosphate transport protein 2B)
Described as above. It is filed as cell-based. As to conditions: read-out: Half maximal inhibitory concentration IC50 of cells, Ba/F3 SLC34A2-ROS1-WT. The procedure:
as §1, with “kit.” for “kit. In this test, the cell lines used are Ba/F3 LMNA-NTRK1-WT, Ba/F3 LMNA-NTRK1-F589L, BaF3 LMNA-NTRK1-G595R, BaF3 LMNA-NTRK1-G667A, BaF3 ETV6-NTRK3-WT, BaF3 ETV6-NTRK3-G623R, and Ba/F3 SLC34A2-ROS1-WT stable cell strains, 5000 cells/well.”
as §2, §3, §4, §5, §6, §7, §8, §9, §10

The target in data set [5] is T4, BaF3 LMNA-NTRK1-G595R (Homo sapiens, UniProt P04629, G595R, cells depend on it).
T4 construct: fused on or other part: N-terminal part of LMNA as fusion partner (part of the key); P02545 (Prelamin-A/C)
T4 sequence (P04629 whole entry G595R, the tested form may be a part): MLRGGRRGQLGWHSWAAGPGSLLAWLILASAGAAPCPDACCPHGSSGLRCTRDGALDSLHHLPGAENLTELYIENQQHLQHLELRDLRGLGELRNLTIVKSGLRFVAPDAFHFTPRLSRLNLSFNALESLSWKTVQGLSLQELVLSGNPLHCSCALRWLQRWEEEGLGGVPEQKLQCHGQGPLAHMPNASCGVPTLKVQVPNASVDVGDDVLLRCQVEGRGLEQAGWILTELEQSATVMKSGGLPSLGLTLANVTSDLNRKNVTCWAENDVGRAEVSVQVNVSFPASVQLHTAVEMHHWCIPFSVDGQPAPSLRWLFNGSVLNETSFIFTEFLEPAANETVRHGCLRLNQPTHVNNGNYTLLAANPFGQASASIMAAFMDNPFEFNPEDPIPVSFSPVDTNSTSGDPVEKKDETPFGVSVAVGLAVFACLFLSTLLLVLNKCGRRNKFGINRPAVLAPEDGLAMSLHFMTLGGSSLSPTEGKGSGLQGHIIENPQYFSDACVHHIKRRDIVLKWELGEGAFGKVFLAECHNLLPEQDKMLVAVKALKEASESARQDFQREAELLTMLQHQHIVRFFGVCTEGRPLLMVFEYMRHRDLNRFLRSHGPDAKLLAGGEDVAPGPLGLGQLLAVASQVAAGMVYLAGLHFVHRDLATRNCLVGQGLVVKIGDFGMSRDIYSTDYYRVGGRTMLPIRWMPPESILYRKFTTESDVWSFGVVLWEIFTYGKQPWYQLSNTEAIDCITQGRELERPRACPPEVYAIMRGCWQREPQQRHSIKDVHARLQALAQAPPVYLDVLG
Described as above. It is filed as cell-based. As to conditions: read-out: Half maximal inhibitory concentration IC50 of cells, BaF3 LMNA-NTRK1-G595R. The procedure: as §1, with “kit.” for “kit. In this test, the cell lines used are Ba/F3 LMNA-NTRK1-WT, Ba/F3 LMNA-NTRK1-F589L, BaF3 LMNA-NTRK1-G595R, BaF3 LMNA-NTRK1-G667A, BaF3 ETV6-NTRK3-WT, BaF3 ETV6-NTRK3-G623R, and Ba/F3 SLC34A2-ROS1-WT stable cell strains, 5000 cells/well.”
as §2, §3, §4, §5, §6, §7, §8, §9, §10

Data set [6] has as its target T5, BaF3 LMNA-NTRK1-G667A (Homo sapiens, UniProt P04629, G667A, cells depend on it).
T5 construct: fused on or other part: N-terminal part of LMNA as fusion partner (part of the key); P02545 (Prelamin-A/C)
Described as above. It is filed as cell-based. As to conditions: read-out: Half maximal inhibitory concentration IC50 of cells, BaF3 LMNA-NTRK1-G667A. The procedure:
as §1, with “kit.” for “kit. In this test, the cell lines used are Ba/F3 LMNA-NTRK1-WT, Ba/F3 LMNA-NTRK1-F589L, BaF3 LMNA-NTRK1-G595R, BaF3 LMNA-NTRK1-G667A, BaF3 ETV6-NTRK3-WT, BaF3 ETV6-NTRK3-G623R, and Ba/F3 SLC34A2-ROS1-WT stable cell strains, 5000 cells/well.”
as §2, §3, §4, §5, §6, §7, §8, §9, §10

Data set [7] addresses T6, BaF3 ETV6-NTRK3-WT (Homo sapiens, UniProt Q16288).
T6 construct: fused on or other part: N-terminal part of ETV6 (TEL) as fusion partner (part of the key); P41212 (Transcription factor ETV6)
Described as above. It is filed as cell-based. To be noted: read-out: Half maximal inhibitory concentration IC50 of cells, BaF3 ETV6-NTRK3-WT. The procedure:
as §1, with “kit.” for “kit. In this test, the cell lines used are Ba/F3 LMNA-NTRK1-WT, Ba/F3 LMNA-NTRK1-F589L, BaF3 LMNA-NTRK1-G595R, BaF3 LMNA-NTRK1-G667A, BaF3 ETV6-NTRK3-WT, BaF3 ETV6-NTRK3-G623R, and Ba/F3 SLC34A2-ROS1-WT stable cell strains, 5000 cells/well.”
as §2, §3, §4, §5, §6, §7, §8, §9, §10

Data set [8] deals with T7, Ba/F3 LMNA-NTRK1-F589L (Homo sapiens, UniProt P04629, F589L, cells depend on it).
T7 construct: fused on or other part: N-terminal part of LMNA as fusion partner (part of the key); P02545 (Prelamin-A/C)
T7 sequence (P04629 whole entry F589L, the tested form may be a part): as the sequence (P04629 whole entry G595R, the tested form may be a part) above, with F589L, R595G counted along it
The description is as above. As to conditions: read-out: Half maximal inhibitory concentration IC50 of cells, Ba/F3 LMNA-NTRK1-F589L. It counts as cell-based. The procedure: as §1, with “kit.” for “kit. In this test, the cell lines used are Ba/F3 LMNA-NTRK1-WT, Ba/F3 LMNA-NTRK1-F589L, BaF3 LMNA-NTRK1-G595R, BaF3 LMNA-NTRK1-G667A, BaF3 ETV6-NTRK3-WT, BaF3 ETV6-NTRK3-G623R, and Ba/F3 SLC34A2-ROS1-WT stable cell strains, 5000 cells/well.”
as §2, §3, §4, §5, §6, §7, §8, §9, §10

Like-named read-outs stand apart in the source and are kept apart here.

Results on 1 compound are retold here after patent publication US20210403485A1, “PYRAZOLOPYRIMIDINE DERIVATIVE AS SELECTIVE TRK INHIBITOR” (SHANDONG LUYE PHARMACEUTICAL CO., LTD., priority 2018, published 2021).

As a reminder, the bioavailability is dose-corrected exposure relative to a reference, in per cent. Broadly, the Tmax is the time from dosing to the highest level.

T1 sequence (Q16288 whole entry G623R, the tested form may be a part): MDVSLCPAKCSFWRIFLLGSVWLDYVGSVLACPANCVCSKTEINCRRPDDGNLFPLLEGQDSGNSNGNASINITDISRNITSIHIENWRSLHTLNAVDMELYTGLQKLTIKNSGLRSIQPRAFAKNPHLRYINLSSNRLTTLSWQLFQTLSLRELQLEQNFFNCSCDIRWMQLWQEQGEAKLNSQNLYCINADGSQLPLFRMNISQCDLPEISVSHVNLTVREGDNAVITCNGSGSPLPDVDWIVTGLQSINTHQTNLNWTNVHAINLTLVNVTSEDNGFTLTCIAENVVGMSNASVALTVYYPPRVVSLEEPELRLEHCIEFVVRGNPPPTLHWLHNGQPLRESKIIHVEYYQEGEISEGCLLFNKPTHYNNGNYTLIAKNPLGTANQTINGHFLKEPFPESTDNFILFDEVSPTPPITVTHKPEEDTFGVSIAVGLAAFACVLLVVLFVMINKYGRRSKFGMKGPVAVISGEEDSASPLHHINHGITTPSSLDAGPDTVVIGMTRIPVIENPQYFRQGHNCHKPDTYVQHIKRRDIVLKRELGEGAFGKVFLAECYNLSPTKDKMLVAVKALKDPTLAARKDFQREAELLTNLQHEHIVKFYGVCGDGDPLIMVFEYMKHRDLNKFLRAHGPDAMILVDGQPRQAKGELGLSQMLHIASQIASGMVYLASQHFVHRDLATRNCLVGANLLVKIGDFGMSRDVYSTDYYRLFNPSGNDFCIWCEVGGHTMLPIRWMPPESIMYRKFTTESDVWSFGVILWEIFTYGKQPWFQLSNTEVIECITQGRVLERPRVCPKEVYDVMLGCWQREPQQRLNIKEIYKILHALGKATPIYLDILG
T2 sequence (P04629 whole entry, change not shown, the tested form may be a part): as the sequence (P04629 whole entry G595R, the tested form may be a part) above, with R595G counted along it
T3 sequence (P08922 whole entry, change not shown, the tested form may be a part): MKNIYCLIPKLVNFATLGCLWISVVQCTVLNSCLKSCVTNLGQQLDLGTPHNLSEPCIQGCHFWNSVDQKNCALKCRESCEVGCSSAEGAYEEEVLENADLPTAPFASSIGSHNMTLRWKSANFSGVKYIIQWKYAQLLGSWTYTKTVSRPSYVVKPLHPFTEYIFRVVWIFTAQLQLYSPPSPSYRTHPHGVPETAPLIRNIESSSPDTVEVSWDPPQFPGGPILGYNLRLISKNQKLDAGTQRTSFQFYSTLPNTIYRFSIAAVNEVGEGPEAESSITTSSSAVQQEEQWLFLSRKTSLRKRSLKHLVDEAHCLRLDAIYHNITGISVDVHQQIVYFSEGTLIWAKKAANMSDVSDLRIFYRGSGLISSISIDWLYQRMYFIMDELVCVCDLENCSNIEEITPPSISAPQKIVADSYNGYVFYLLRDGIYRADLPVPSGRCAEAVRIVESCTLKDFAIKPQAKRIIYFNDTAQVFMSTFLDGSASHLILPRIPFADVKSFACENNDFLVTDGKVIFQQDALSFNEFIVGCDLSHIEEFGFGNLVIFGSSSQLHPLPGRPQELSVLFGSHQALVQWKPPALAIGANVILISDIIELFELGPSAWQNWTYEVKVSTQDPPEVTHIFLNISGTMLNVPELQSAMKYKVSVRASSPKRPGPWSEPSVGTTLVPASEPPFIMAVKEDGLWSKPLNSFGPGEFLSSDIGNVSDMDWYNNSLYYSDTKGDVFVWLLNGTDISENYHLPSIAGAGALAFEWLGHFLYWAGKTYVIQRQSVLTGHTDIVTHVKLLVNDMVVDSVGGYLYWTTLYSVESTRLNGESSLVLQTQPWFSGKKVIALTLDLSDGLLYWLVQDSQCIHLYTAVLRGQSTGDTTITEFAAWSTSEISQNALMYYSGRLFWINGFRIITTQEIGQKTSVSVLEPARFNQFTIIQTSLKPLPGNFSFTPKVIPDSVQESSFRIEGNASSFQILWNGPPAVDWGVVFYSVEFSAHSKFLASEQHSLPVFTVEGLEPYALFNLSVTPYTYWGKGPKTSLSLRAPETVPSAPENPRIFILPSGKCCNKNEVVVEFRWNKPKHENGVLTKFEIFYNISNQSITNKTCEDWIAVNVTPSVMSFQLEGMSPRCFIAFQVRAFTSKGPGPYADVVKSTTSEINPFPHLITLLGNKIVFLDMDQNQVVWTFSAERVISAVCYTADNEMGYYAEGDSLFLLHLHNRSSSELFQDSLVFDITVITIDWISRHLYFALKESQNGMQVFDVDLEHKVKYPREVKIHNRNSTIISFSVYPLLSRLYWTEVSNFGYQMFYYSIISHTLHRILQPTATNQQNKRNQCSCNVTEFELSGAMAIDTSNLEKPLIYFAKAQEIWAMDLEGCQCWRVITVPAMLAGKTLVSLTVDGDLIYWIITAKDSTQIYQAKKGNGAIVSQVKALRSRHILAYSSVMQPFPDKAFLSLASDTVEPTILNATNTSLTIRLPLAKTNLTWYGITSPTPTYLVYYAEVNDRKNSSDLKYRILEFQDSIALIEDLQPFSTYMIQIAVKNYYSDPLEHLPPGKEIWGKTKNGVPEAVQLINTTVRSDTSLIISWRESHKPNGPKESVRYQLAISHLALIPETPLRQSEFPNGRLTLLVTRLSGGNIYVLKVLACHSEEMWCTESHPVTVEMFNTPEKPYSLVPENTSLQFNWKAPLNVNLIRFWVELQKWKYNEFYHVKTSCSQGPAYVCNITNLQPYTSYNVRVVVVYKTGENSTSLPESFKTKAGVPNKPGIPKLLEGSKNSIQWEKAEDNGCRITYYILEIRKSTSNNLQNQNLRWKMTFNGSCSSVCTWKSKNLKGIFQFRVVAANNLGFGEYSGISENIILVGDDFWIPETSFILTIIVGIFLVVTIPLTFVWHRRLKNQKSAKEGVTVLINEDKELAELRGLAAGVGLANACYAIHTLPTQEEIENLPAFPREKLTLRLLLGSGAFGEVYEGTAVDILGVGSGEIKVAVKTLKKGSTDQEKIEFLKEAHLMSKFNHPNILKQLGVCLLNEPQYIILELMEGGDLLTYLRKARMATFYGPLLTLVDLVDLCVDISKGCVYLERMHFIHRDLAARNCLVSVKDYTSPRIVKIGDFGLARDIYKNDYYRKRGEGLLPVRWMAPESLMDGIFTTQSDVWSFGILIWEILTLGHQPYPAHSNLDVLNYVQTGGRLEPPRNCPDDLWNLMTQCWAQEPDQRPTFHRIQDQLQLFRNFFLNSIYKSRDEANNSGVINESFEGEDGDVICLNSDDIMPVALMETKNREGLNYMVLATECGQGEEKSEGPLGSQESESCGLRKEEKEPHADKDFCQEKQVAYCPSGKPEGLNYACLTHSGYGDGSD
T5 sequence (P04629 whole entry G667A, the tested form may be a part): as the sequence (P04629 whole entry G595R, the tested form may be a part) above, with R595G, G667A counted along it
T6 sequence (Q16288 whole entry, change not shown, the tested form may be a part): as the sequence (Q16288 whole entry G623R, the tested form may be a part) above, with R623G counted along it

With `O=C1N[C@@H]2COC[C@@H]2Oc2ncc(F)cc2C2COCCN2c2ccn3ncc1c3n2` (stereo partly drawn) [WX005A], the GI50 in data set [1] is 11 nM; in data set [3], 0.7 nM; in data set [4] it was 246 nM; in data set [5], 5.2 nM; in data set [6], 3.8 nM; in data set [7], 2.9 nM. Also, the GI50 in data set [8] stood at 56.6 nM. Further, the “Apparent clearance Cl” value in data set [2] (IV, 3 mg/kg) came to 9.78 mL/min/kg. The Vd in data set [2] (male, CD-1, mouse, plasma, IV, 3 mg/kg, read-out: Apparent volume of distribution Vd) was found to be 0.78 L/kg. Besides, the AUC(0-t) in data set [2] (male, CD-1, mouse, plasma, IV, 3 mg/kg) was found to be 12 µM·h; in data set [2] (male, CD-1, mouse, plasma, PO, 10 mg/kg) it was 21.4 µM·h. Moreover, the half-life in data set [2] (male, CD-1, mouse, plasma, IV, 3 mg/kg, read-out: Half-life T1/2 (converted)) was 61.2 min. In addition, in data set [2] (male, CD-1, mouse, plasma, PO, 10 mg/kg, read-out: Bioavailability F %), the bioavailability worked out at 54%. In data set [2] (male, CD-1, mouse, plasma, PO, 10 mg/kg, read-out: Peak concentration Cmax), the Cmax came to 7.12 µM. Also, in data set [2] (male, CD-1, mouse, plasma, PO, 10 mg/kg, read-out: Time to peak Tmax), the time to peak (Tmax) was 22.8 min.
